Where a SMILES comes first, the peptide text is derived from it.
Legend:
rTas1r2-hTAS1R3 = target: T1, rTas1r2-hTAS1R3 (UniProt Q7RTX0+Q9Z0R7); test: Calcium mobilization (FLIPR), interspecies combination; details: asp 15 mM; cyc 30 mM; neo 0.1 mM; sac 10 mM; suc 100 mM; stev 1 mM; markedly reduced amplitudes
T1 sequence (Q9Z0R7 20-843): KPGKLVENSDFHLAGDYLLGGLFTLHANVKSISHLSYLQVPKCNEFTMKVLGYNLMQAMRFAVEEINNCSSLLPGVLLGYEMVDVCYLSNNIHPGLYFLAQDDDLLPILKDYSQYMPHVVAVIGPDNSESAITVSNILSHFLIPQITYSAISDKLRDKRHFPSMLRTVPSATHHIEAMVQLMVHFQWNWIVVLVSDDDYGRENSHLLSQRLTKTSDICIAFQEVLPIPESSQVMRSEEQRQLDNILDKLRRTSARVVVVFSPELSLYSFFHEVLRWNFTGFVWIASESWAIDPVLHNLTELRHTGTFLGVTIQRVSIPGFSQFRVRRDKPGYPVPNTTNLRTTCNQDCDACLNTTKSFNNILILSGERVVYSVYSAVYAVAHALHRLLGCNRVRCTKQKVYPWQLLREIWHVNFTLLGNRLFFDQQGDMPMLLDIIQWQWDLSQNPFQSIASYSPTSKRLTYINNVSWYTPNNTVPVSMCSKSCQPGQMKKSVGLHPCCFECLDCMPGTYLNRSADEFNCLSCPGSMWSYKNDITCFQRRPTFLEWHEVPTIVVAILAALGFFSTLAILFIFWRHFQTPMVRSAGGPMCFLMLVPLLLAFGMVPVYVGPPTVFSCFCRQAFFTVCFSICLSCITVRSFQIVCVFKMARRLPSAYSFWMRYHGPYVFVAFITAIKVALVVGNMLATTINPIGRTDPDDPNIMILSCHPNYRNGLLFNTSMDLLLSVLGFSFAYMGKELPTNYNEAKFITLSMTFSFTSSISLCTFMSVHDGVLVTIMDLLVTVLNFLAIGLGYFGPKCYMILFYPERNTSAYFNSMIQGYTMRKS
T1 sequence (Q7RTX0 21-852): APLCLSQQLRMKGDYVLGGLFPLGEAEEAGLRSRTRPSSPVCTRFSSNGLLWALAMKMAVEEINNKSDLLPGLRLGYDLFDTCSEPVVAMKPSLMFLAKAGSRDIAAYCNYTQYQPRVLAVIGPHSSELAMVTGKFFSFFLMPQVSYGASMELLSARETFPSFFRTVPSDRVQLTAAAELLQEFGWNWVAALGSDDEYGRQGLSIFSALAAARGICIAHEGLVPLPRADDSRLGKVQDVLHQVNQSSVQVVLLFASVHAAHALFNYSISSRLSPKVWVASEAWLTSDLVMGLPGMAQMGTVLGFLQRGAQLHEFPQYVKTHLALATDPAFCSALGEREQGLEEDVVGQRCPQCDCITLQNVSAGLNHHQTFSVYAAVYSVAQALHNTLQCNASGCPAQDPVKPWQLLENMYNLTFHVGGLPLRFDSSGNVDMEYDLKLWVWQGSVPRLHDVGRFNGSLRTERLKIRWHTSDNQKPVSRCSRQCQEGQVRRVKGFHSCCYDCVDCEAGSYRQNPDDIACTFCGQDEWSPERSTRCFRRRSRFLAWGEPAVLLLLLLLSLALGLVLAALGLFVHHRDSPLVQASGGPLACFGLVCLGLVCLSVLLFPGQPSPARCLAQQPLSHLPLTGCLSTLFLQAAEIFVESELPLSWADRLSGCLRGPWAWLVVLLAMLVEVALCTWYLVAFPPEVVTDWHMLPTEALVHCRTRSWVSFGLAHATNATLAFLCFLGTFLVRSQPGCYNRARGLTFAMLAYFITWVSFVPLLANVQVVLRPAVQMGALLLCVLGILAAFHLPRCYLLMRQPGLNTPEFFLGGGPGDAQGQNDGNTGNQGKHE

[1] = test system: hTAS1R2 and tas1r3-hN-rTM; test: Calcium mobilization (FLIPR), chimera with human N-terminus and rat transmembrane region; assay type: cell-based; details: asp 15 mM; cyc 30 mM; neo 0.1 mM; sac 10 mM; suc 100 mM; stev 1 mM
Description: The receptor chimeras of Tas1r3 were constructed using recombinant PCR. In the first reactions the N-terminal and the C-terminal part containing the seven transmembrane domains of hTAS1R3 and rTas1r3 were amplified from plasmid DNA using Ultra Pfu Polymerase (Stratagene). For the hTAS1R3 and rTas1r3 N-termini the forward vector-anchored primer (CMV: […]) and a reverse gene specific primer ([…]) were used. The hTAS1R3 and rTas1r3 C-terminal part were amplified with forward gene specific primer ([…]) and a reverse vector-anchored primer ([…]). PCR conditions were: 5 min, 94°C, 24 cycles 1 min 94°C, 0.5 min 64°C, 2 min 72°C; 5 min 72°C. The amplicons were purified using the Highpure PCR Product Purification Kit (Roche) and used as template for the second PCR. To create the chimeric receptor tas1r3-hN-rTM, equimolar amounts (~50 ng) of the hTAS1R3 N-terminus and rTas1r3 transmembrane domains were combined without additional oligonucleotides. PCR conditions were: 5 min 94°C; 15 cycles of 2 min 64°C, 2 min 72°C and 0.5 min 94°C; followed by 5 min 64°C and 10 min 72°C. […] These chimeras were cloned into pcDNA5/FRT.
The cDNAs were transiently transfected into HEK293T cells stably expressing the chimeric G-protein subunit Gα16gust44 [20] using Lipofectamine 2000 (Invitrogen) according to the manufacturer's protocol. 3–4 hours after transfection, DMEM was replaced by low-glucose DMEM supplemented with GlutaMAX and 10% dialyzed FBS (Invitrogen). 22–44 hours later, cells were loaded for 1 hour with the calcium sensitive dye Fluo4-AM (2 μg/ml in DMEM, Molecular Probes). Cells were washed 3x in solution C1 (130 mM NaCl, 5 mM KCl, 10 mM Hepes, 2 mM CaCl2, and 5 mM Glucose, pH 7,4). Calcium mobilization was monitored by an automated fluorometric imaging plate reader (FLIPR, Molecular Devices). Ligands (Sigma-Aldrich, Merck) were dissolved in C1 solution. All data were collected from at least two independent experiments carried out in triplicate. The obtained calcium signals were corrected for the response of mock transfected cells and normalized to the fluorescence of cells prior to the stimulus using ΔF/F=(F-F0)/F0. […]
All sweeteners were used at concentrations which were close to the maximal obtainable signal. (c) Alignment of amino acid sequences of the human, rat, and mouse Tas1r3 transmembrane regions. Color code: white, identical; grey, conservative; dark-grey, similar; black, non-similar. TM, predicted transmembrane domain, indicated by a black bar. Dots indicate the location of the primer used to generate the chimeric rat-human Tas1r3 receptors. Asterisks denote amino acid positions that are identical in rat and mouse but variable between humans and rodents and are located in the extracellular loops or the upper part of the transmembran regions. Boxes indicate the several rTas1r3 mutants m1 – m7, including the amino acid substitutions. m6/1 – m6/3 signified the reconverted amino acid of mutant m6.

| Compound | activation of receptor (calcium response) (rTas1r2-hTAS1R3) | activation of receptor (calcium response) [1] |
| --- | --- | --- |
| O=S(=O)(O)NC1CCCCC1 [cyclamate] | clearly responded | not |
| COC(=O)[C@H](Cc1ccccc1)NC(=O)[C@@H](N)CC(=O)O [aspartame] (HELM PEPTIDE1{D.F.[CO[*:1]]}$$$$V2.0) | failed to activate | responded |

More lines, now with the values ahead:

| activation of receptor (calcium response) (rTas1r2-hTAS1R3) | activation of receptor (calcium response) [1] | Compound |
| --- | --- | --- |
| failed to activate | responded | C=C1C[C@@]23CC[C@H]4[C@@](C)(CCC[C@@]4(C)C(=O)O[C@@H]4O[C@H](CO)[C@@H](O)[C@H](O)[C@H]4O)[C@@H]2CC[C@]1(O[C@@H]1O[C@H](CO)[C@@H](O)[C@H](O)[C@H]1O[C@@H]1O[C@H](CO)[C@@H](O)[C@H](O)[C@H]1O)C3 [stevioside] |
| clearly responded | not | COc1ccc(CCC(=O)c2c(O)cc(O[C@@H]3O[C@H](CO)[C@@H](O)[C@H](O)[C@H]3O[C@@H]3O[C@@H](C)[C@H](O)[C@@H](O)[C@H]3O)cc2O)cc1O [neohesperidine dihydrochalcone] |
| failed to activate | responded | OC[C@H]1O[C@@](CO)(O[C@H]2O[C@H](CO)[C@@H](O)[C@H](O)[C@H]2O)[C@@H](O)[C@@H]1O [sucrose] |

Source: article PMC1084349 (BMC Neuroscience, 2005)
